For ten compounds, IC50 and Ki results are on record in ChEMBL document CHEMBL1799949, “Enantioselective binding of second generation pyrrolobenzoxazepinones to the catalytic ternary complex of HIV-1 RT wild-type and L100I and K103N drug resistant mutants” (Bioorg Med Chem Lett, 2011).

One may read the IC50 as the concentration that gives 50% inhibition. Lower therefore signals higher potency. Broadly, the Ki is a dissociation constant, usually derived from enzyme kinetics or from competition with a known ligand.

In experiment [1] the target is T1, Human immunodeficiency virus type 1 reverse transcriptase (Human immunodeficiency virus 1, UniProt Q72547, K103N). Briefly: Inhibition of HIV1 reverse transcriptase K103N mutant.
Experiment [2] concerns the target T2, Human immunodeficiency virus type 1 reverse transcriptase (Human immunodeficiency virus 1, UniProt Q72547, V179D). Briefly: Inhibition of HIV1 reverse transcriptase V179D mutant.
Experiment [3] concerns the target T3, Human immunodeficiency virus type 1 reverse transcriptase (Human immunodeficiency virus 1, UniProt Q72547, L100I). As to the kind of experiment: Inhibition of HIV1 reverse transcriptase L100I mutant.
Experiment [4] concerns the target T4, Human immunodeficiency virus type 1 reverse transcriptase (Human immunodeficiency virus 1, UniProt Q72547). Briefly: Inhibition of HIV1 wild type reverse transcriptase.
The target in experiment [5] is T3, Human immunodeficiency virus type 1 reverse transcriptase. Briefly: Inhibition of HIV1 reverse transcriptase L100I mutant/poly(rA)/oligo(dT) DNA/dTTP ternary complex.
The target of experiment [6] is T4, Human immunodeficiency virus type 1 reverse transcriptase. Briefly: Inhibition of HIV1 free wild type reverse transcriptase.
Experiment [7] has as its target T3, Human immunodeficiency virus type 1 reverse transcriptase. As to the kind of experiment: Inhibition of HIV1 free reverse transcriptase L100I mutant.
Experiment [8] concerns the target T2, Human immunodeficiency virus type 1 reverse transcriptase. Briefly: Inhibition of HIV1 free reverse transcriptase V179D mutant.
For experiment [9], the target named is T1, Human immunodeficiency virus type 1 reverse transcriptase. As to the kind of experiment: Inhibition of HIV1 reverse transcriptase K103N mutant/poly(rA)/oligo(dT) DNA/dTTP ternary complex.
Experiment [10] has as its target T2, Human immunodeficiency virus type 1 reverse transcriptase. As to the kind of experiment: Inhibition of HIV1 reverse transcriptase V179D mutant/poly(rA)/oligo(dT) DNA binary complex.
For experiment [11] the target is unchanged. As to the kind of experiment: Inhibition of HIV1 reverse transcriptase V179D mutant/poly(rA)/oligo(dT) DNA/dTTP ternary complex.
The target of experiment [12] is T1, Human immunodeficiency virus type 1 reverse transcriptase. As to the kind of experiment: Inhibition of HIV1 reverse transcriptase K103N mutant/poly(rA)/oligo(dT) DNA binary complex.
Experiment [13] concerns the target T3, Human immunodeficiency virus type 1 reverse transcriptase. Briefly: Inhibition of HIV1 reverse transcriptase L100I mutant/poly(rA)/oligo(dT) DNA binary complex.
The target in experiment [14] is T4, Human immunodeficiency virus type 1 reverse transcriptase. As to the kind of experiment: Inhibition of HIV1 wild type reverse transcriptase/poly(rA)/oligo(dT) DNA binary complex.
Experiment [15] has the same target. As to the kind of experiment: Inhibition of HIV1 wild type reverse transcriptase/poly(rA)/oligo(dT) DNA/dTTP ternary complex.
Experiment [16] addresses T1, Human immunodeficiency virus type 1 reverse transcriptase. As to the kind of experiment: Inhibition of HIV1 free reverse transcriptase K103N mutant.

For `CCC1(c2ccc(CSc3ccccc3)cc2)Oc2ccccc2-n2cccc2C1=O` (racemic), the concentration for half-maximal inhibition (IC50) in experiment [1] was determined as 250 nM; in experiment [2], 150 nM; in experiment [3], 990 nM; in experiment [4] it was 60 nM.

`CCC1(c2ccc(CSc3ccc(F)cc3)cc2)Oc2ccccc2-n2cccc2C1=O` (racemic): the half-maximal inhibitory concentration (IC50) was 3350 nM in experiment [1], greater than 40000 nM in [2], greater than 400000 nM in experiment [3] and 250 nM in [4].

In the case of `CCC1(c2ccc(CSc3ccc(Br)cc3)cc2)Oc2ccccc2-n2cccc2C1=O` (racemic), the IC50 in experiment [1] was 1160 nM; in experiment [2], 290 nM; in experiment [3], greater than 400000 nM; in experiment [4], 60 nM.

In the case of `CCC1(c2ccc(CSc3c(Cl)cccc3Cl)cc2)Oc2ccccc2-n2cccc2C1=O` (racemic), the IC50 in experiment [1] is greater than 400000 nM; in experiment [2], greater than 40000 nM; in experiment [3] it was greater than 400000 nM; in experiment [4], 7360 nM.

On to `CCC1(c2ccc(CSc3ccc(F)cc3Cl)cc2)Oc2ccccc2-n2cccc2C1=O` (racemic), for which the IC50 in experiment [1] is 20500 nM; in experiment [2], greater than 40000 nM; in experiment [3], greater than 400000 nM; in experiment [4], 610 nM.

`CCC1(c2ccc(COc3ccccc3)cc2)Oc2ccccc2-n2cccc2C1=O` (racemic): the IC50 in [1] came to 400 nM; in experiment [3], 200 nM; in experiment [4] it was 150 nM.

Turning to `CCC1(c2ccc(COc3cccc(Cl)c3)cc2)Oc2ccccc2-n2cccc2C1=O` (racemic), the IC50 came to 300 nM in experiment [1], 300 nM in experiment [2], 250 nM in [3] and 100 nM in experiment [4].

With `CCC1(c2ccc(CSc3ccccc3)cc2)Oc2ccccc2-n2cccc2C1=O` (single isomer, unassigned; (+)), the Ki is 510 nM in [5]; 420 nM in [6]; 700 nM in experiment [7]; 780 nM in experiment [8]; 780 nM in [9]; 780 nM in experiment [10]. For the same compound, the inhibitory constant (Ki) came out at 540 nM in [11]; 1350 nM in [12]; 700 nM in [13]; 420 nM in [14]; 100 nM in [15]; 1350 nM in experiment [16].

`CCC1(c2ccc(CSc3ccc(Br)cc3)cc2)Oc2ccccc2-n2cccc2C1=O` (single isomer, unassigned; (+)): the Ki in [5] amounted to 30 nM; in experiment [6], 400 nM; in experiment [7], 1200 nM; in [8] it was 620 nM; in experiment [9] it was 1040 nM; in experiment [10] it was 620 nM. The Ki in experiment [11] was 190 nM; in [12], 2210 nM; in [13] it was 1200 nM; in experiment [14], 400 nM; in [15] it was 110 nM; in experiment [16], 2210 nM.

For the compound `CCC1(c2ccc(CSc3ccc(F)cc3Cl)cc2)Oc2ccccc2-n2cccc2C1=O` (single isomer, unassigned; (+)), the inhibition constant (Ki) was determined as 150 nM in experiment [5]; 90 nM in [6]; 200 nM in experiment [7]; 140 nM in experiment [8]; 20 nM in experiment [9]; 140 nM in experiment [10]. The inhibition constant Ki was 120 nM in [11]; 510 nM in experiment [12]; 200 nM in experiment [13]; 90 nM in experiment [14]; 10 nM in experiment [15]; 510 nM in [16].
